The text below walks through data of US10214492B2, “Heterocyclic inhibitors of MCT4” (Vettore, LLC, priority 2016, dated 2019).

Series [1] in a line: Metabolic stability in mouse liver microsomes (in vitro t1/2). Type of series: in vitro ADME. As to conditions: for half-life at 2 µM: mouse liver microsomes 0.5 mg/mL, 2 μM compound, read-out: Mouse microsome t1/2, min; for Mouse microsome % 60 min: mouse liver microsomes. As to the method: (§1) The following are assays that may be used to evaluate the metabolic stability of compounds of Formula (I) in human, rat, or mouse microsomes. The assays follow a common procedure recited below. 1. […] Two separated experiments were performed as follows. a) With NADPH: 10 μL of 20 mg/mL liver microsomes and 40 μL of 10 mM NADPH were added to the incubations. […] The final concentration of microsomes was 0.5 mg/mL. 3. The reaction was started with the addition of 4 μL of 200 μM control compound or test compound solutions. Verapamil was used as positive control in this study. The final concentration of test compound or control compound was 2 μM. 4. Aliquots of 50 μL were taken from the reaction solution at 0, 15, 30, 45 and 60 min. […] Samples were centrifuged at 3,220 g for 40 minutes. A 90 μL aliquot of the supernatant was mixed with 90 μL of ultra-pure H2O and then used for LC-MS/MS analysis. 5. Data analysis. All calculations were carried out using Microsoft Excel. Peak areas were determined from extracted ion chromatograms. The slope value, k, was determined by linear regression of the natural logarithm of the remaining percentage of the parent drug vs. incubation time curve. The in vitro half-life (in vitro t1/2) was determined from the slope value: in vitro t1/2=−(0.693)/k.
(Microsomes from liver hold many membrane-bound enzymes, among them those of drug oxidation.)

Series [2] is described as follows: Metabolic stability in human liver microsomes (in vitro t1/2). Type of series: in vitro ADME. The conditions noted are these: for half-life at 2 µM: human liver microsomes 0.5 mg/mL, 2 μM compound, read-out: Human microsome t1/2, min; for Human microsome % 60 min: human liver microsomes. The procedure:
as §1

The next series has as its target MCT1 (Homo sapiens (Human), UniProt P53985). The series is described as follows: Assay 4: MCT1-mediated lactate transport in BT20 breast cancer cells. Type of series: cell-based. The conditions noted are these: Table 27. In outline:
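BT20 cells loaded with BCECF-AM (30 mM DMSO stock) for 5 min at 37° C, washed and resuspended in Tyrode's Solution pH 7.4. Lactate uptake tracked via BCECF intracellular pH signal after adding 10 mM L-lactate.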

The next series has as its target MCT4 (Homo sapiens (Human), UniProt O15427). In words: Assay 3: MCT4-mediated lactate transport in MDA-MB-231 breast cancer cells. Type of series: cell-based. The gist of the method: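 MDA-MB-231 cells loaded with BCECF-AM, 5 min at 37° C, washed and resuspended in Tyrode's Solution, pH 7.4. MCT4 lactate/proton symport followed as the intracellular pH change reported by BCECF fluorescence.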

Where [3] appears, read: MDA-MB-231 cells, lactate transport.

A word on the IC50: it is the point on the concentration scale where inhibition reaches its midpoint.

Read-outs that look alike come from different tables or passages of the source. A value given as a limit tells only on which side of the number the result lay.

MCT1, sequence (P53985 whole entry): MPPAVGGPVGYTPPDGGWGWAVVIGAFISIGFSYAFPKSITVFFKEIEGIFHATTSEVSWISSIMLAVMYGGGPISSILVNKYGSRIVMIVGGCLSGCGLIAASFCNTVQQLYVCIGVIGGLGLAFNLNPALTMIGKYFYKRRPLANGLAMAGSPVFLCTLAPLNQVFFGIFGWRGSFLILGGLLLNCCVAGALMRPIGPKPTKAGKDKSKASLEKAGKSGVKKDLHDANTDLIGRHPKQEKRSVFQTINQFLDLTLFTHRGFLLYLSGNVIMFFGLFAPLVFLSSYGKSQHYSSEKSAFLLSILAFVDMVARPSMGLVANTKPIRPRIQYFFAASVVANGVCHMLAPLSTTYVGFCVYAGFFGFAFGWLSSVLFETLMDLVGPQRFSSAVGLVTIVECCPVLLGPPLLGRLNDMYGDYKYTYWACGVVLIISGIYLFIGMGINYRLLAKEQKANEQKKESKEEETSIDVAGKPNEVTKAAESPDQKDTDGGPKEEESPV
MCT1, sequence (P35613 140-385 partner): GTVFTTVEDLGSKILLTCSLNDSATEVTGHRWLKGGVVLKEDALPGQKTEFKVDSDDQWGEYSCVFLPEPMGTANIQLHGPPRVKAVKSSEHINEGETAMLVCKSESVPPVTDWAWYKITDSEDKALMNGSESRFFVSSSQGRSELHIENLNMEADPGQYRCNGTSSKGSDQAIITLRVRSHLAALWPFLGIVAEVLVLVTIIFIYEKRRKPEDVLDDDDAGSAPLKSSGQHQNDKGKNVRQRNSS
MCT4, sequence (O15427 whole entry, looked up): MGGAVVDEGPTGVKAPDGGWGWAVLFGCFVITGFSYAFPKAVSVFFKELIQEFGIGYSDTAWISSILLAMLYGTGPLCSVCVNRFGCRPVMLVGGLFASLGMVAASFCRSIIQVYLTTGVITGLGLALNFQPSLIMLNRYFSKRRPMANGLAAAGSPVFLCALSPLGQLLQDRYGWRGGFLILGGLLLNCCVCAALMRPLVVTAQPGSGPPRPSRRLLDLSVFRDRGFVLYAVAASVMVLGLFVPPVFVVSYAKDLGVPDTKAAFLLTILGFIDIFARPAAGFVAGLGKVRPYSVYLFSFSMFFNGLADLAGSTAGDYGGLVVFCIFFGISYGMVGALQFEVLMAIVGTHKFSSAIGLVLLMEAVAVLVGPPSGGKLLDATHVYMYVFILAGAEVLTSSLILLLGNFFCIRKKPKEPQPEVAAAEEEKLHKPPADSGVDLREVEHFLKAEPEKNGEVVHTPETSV
MCT4, sequence (P35613 whole entry partner, looked up): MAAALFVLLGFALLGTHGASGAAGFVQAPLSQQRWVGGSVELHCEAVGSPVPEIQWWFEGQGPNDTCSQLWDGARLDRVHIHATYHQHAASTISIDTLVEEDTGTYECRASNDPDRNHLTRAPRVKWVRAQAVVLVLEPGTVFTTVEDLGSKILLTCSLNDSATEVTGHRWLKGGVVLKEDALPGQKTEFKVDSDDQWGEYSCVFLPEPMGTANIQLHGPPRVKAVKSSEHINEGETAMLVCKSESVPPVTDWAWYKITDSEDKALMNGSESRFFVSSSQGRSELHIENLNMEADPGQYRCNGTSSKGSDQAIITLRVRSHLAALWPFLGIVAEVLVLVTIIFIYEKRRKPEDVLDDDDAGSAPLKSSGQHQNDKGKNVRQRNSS

Turning to `CC(C)COc1cccc(-c2cc(COC(C)(C)C(=O)O)nn2Cc2ccccc2Cl)c1` [Example 27, 2-([1-[(2-Chlorophenyl)methyl]-5-(3-(2-methyl-propoxy)phenyl)1H-pyrazol-3-yl]methoxy)-2-methylpropanoic acid], in series [1], the half-life at 2 µM was found to be 61 min and the “Mouse microsome % 60 min” value worked out at 50%. Further, in series [2], the half-life at 2 µM was determined as 50 min and the “Human microsome % 60 min” value was 43%.

Take `CC(C)Oc1cccc(-c2cc(COC(C)(C)C(=O)O)nn2Cc2ccccc2Cl)c1` [Example 35, 2-([1-[(2-Chlorophenyl)methyl]-5-(3-isopropoxyphenyl)1H-pyrazol-3-yl]methoxy)-2-methylpropanoic acid]: in series [1], the half-life at 2 µM came to 35 min and the “Mouse microsome % 60 min” value amounted to 31%. In series [2], the half-life at 2 µM worked out at 115 min and the “Human microsome % 60 min” value stood at 67%.

In the case of `Cn1ncc2ccc(-c3cc(COC(C)(C)C(=O)O)nn3-c3ccccc3N3CCCC3)cc21` [Example 230, 2-Methyl-2-([5-(1-methyl-1H-indazol-6-yl)-1-[2-(pyrrolidin-1-yl)phenyl]-1H-pyrazol-3-yl]methoxy]propanoic acid], the IC50 worked out at 92000 nM on MCT1 and 8.1 nM against MCT4 (setting [3]).

Take `COc1cc(OC)cc(-c2cc(COC(C)(C)C(=O)O)nn2-c2ccccc2N2CCCC2)c1` [Example 231, 2-([5-(3,5-Dimethoxyphenyl)-1-[2-(pyrrolidin-1-yl)phenyl]-1H-pyrazol-3-yl]-methoxy)-2-methylpropanoic acid]: the figures for the IC50 against MCT1 and at MCT4 (setting [3]) were 63000 nM and 4.5 nM, respectively.

Consider `CC(C)(OCc1cc(-c2cccc(OC3CC3)c2)n(-c2ccccc2N2CC[C@H](O)C2)n1)C(=O)O` [Example 233, 2-([5-(3-Cyclopropoxyphenyl)-1-[2-[(3S)-3-hydroxypyrrolidin-1-yl]phenyl]-1H-pyrazol-3-yl]methoxy)-2-methylpropanoic acid], for which the values for the IC50 at MCT1 and at MCT4 (setting [3]) were more than 100000 nM and 700 nM, respectively.

As to `CC(C)(OCc1cc(-c2cccc(OC3CC3)c2)n(-c2ccccc2N2CCOCC2)n1)C(=O)O` [Example 234, 2-([5-(3-Cyclopropoxyphenyl)-1-[2-(morpholin-4-yl)phenyl]-1H-pyrazol-3-yl]-methoxy)-2-methylpropanoic acid], the results for the IC50 against MCT1 and against MCT4 (setting [3]) were 70000 nM and 960 nM, respectively.

Turning to `CC(C)(OCc1cc(-c2cccc(OC3CC3)c2)n(-c2ccccc2N2CCCC2=O)n1)C(=O)O` [Example 235, 2-([5-(3-Cyclopropoxyphenyl)-1-(2-(2-oxopyrrolidin-1-yl)phenyl]-1H-pyrazol-3-yl]methoxy)-2-methylpropanoic acid], the IC50 was more than 100000 nM against MCT1 and more than 30000 nM against MCT4 (setting [3]).

Consider `CC(C)(OCc1cc(-c2cccc(OC3CC3)c2)n(-c2ccccc2-n2cccn2)n1)C(=O)O` [Example 236, 2-([5-(3-Cyclopropoxyphenyl)-1-[2-(1H-pyrazol-1-yl)phenyl]-1H-pyrazol-3-yl]-methoxy)-2-methylpropanoic acid], for which the IC50 was more than 100000 nM on MCT1 and 170 nM on MCT4 (setting [3]).

Regarding `CC(C)(OCc1cc(-c2cccc(OC3CC3)c2)n(-c2ccccc2N2CC[C@@H](O)C2)n1)C(=O)O` [Example 237, 2-([5-(3-Cyclopropoxyphenyl)-1-[2-[(3R)-3-hydroxypyrrolidin-1-yl]phenyl]-1H-pyrazol-3-yl]methoxy)-2-methylpropanoic acid], the IC50 against MCT1 is more than 100000 nM; against MCT4 (setting [3]), 160 nM.

Regarding `CC(C)(OCc1cc(-c2cccc(OC3CCC3)c2)n(Cc2ccccc2N2CCCC2)n1)C(=O)O` [Example 238, 2-([5-(3-Cyclobutoxyphenyl)-1-[[2-(pyrrolidin-1-yl)phenyl]methyl]-1H-pyrazol-3-yl]methoxy)-2-methylpropanoic acid], the results for the IC50 against MCT1 and on MCT4 (setting [3]) were 21000 nM and 3.7 nM, respectively.

On to `CC(C)(OCc1cc(-c2cccc(OC3CC3)c2)n(-c2ccccc2C#N)n1)C(=O)O` [Example 239, 2-([1-(2-Cyanophenyl)-5-(3-cyclopropoxy-phenyl)-1H-pyrazol-3-yl)methoxy)-2-methylpropanoic acid], for which the results for the IC50 against MCT1 and at MCT4 were more than 100000 nM and 150 nM, respectively.

As to `COc1cc(OC)cc(-c2cc(COC(C)(C)C(=O)O)nn2-c2ccccc2N(C)C)c1` [Example 245, 2-([5-(3,5-Dimethoxyphenyl)-1-[2-(dimethylamino)phenyl)-1H-pyrazol-3-yl]-methoxy)-2-methylpropanoic acid], the IC50 at MCT1 was determined as 77000 nM; at MCT4 (setting [3]) it was 7.6 nM.

`CC(C)COc1cccc(-c2cc(COC(C)(C)C(=O)O)nn2Cc2ccccn2)c1` [Example 247, 2-Methyl-2-([5-[3-(2-methylpropoxy)-phenyl]-1-([pyridin-2-yl]methyl)-1H-pyrazol-3-yl]methoxy)propanoic acid]: the IC50 was more than 100000 nM against MCT1 and 23 nM against MCT4 (setting [3]).

Turning to `COc1cc(OC)cc(-c2cc(COC(C)(C)C(=O)O)nn2-c2cccc3cnn(C)c23)c1` [Example 249, 2-([5-(3,5-Dimethoxyphenyl)-1-(1-methyl-1H-indazol-7-yl)-1H-pyrazol-3-yl]methoxy)-2-methylpropanoic acid], the values for the IC50 against MCT1 and against MCT4 (setting [3]) were more than 100000 nM and 39 nM, respectively.

Take `CCOc1cccc(F)c1Cn1nc(COC(C)(C)C(=O)O)cc1-c1cc(OC)cc(OC)c1` [Example 252, 2-([5-(3,5-Dimethoxyphenyl)-1-[(2-ethoxy-6-fluorophenyl)methyl]-1H-pyrazol-3-yl]methoxy)-2-methylpropanoic acid]: the IC50 against MCT1 was 43000 nM; on MCT4 (setting [3]), 25 nM.

For the compound `CC(C)(C)COc1cccc(-c2cc(COC(C)(C)C(=O)O)nn2-c2cccc3cccnc23)c1` [Example 253, 2-([5-[3-(2,2-Dimethylpropoxy)phenyl]-1-(quinolin-8-yl)-1H-pyrazol-3-yl]methoxy)-2-methylpropanoic acid], the IC50 against MCT1 worked out at 55000 nM; at MCT4 (setting [3]), 19 nM.

For the compound `COc1cc(OC)cc(-c2cc(COC(C)(C)C(=O)O)nn2Cc2ccccn2)c1` [Example 254, 2-([5-(3,5-Dimethoxyphenyl)-1-([pyridin-2-yl]methyl)-1H-pyrazol-3-yl]methoxy)-2-methylpropanoic acid], the figures for the IC50 against MCT1 and against MCT4 (setting [3]) were more than 100000 nM and 285 nM, respectively.

On to `Cn1ncc2cccc(Cn3nc(COC(C)(C)C(=O)O)cc3-c3cccc(OCC(C)(C)C)c3)c21` [Example 256, 2-([5-[3-(2,2-Dimethylpropoxy)phenyl]-1-[(1-methyl-1H-indazol-7-yl)methyl]-1H-pyrazol-3-yl]methoxy)-2-methylpropanoic acid], for which the IC50 was found to be 17000 nM on MCT1 and 2.6 nM against MCT4 (setting [3]).

Consider `Cn1nnc2cccc(-n3nc(COC(C)(C)C(=O)O)cc3-c3cccc(OCC(C)(C)C)c3)c21` [Example 258, 2-([5-[3-(2,2-Dimethylpropoxy)phenyl]-1-(1-methyl-1H-1,2,3-benzotriazol-7-yl)-1H-pyrazol-3-yl)methoxy)-2-methylpropanoic acid], for which the IC50 came to 27000 nM against MCT1 and 12 nM against MCT4 (setting [3]).

In the case of `CCn1ncc2ccc(-c3cc(COC(C)(C)C(=O)O)nn3Cc3ccccn3)cc21` [Example 259, 2-([5-(1-Ethyl-1H-indazol-6-yl)-1-([pyridin-2-yl]methyl)-1H-pyrazol-3-yl]methoxy)-2-methylpropanoic acid], the IC50 is more than 100000 nM on MCT1 and 850 nM at MCT4 (setting [3]).

With `CCn1nnc2ccc(-c3cc(COC(C)(C)C(=O)O)nn3Cc3ccccc3Cl)cc21` [Example 261], the IC50 is 43000 nM at MCT1 and 17 nM against MCT4 (setting [3]).

Regarding `CC[C@@](C)(OCc1cc(-c2cccc(OC3CC3)c2)n(-c2ccccc2Cl)n1)C(=O)O` [Example 262, (2R)-2-([1-(2-Chlorophenyl)-5-(3-cyclopropoxyphenyl)-1H-pyrazol-3-yl]methoxy)-2-methylbutanoic acid], the IC50 was 7900 nM on MCT1 and 9.1 nM on MCT4 (setting [3]).

For `CC[C@@](C)(OCc1cc(-c2cccc(OCC(C)C)c2)n(-c2cccc3cnn(C)c23)n1)C(=O)O` [Example 263, (2R)-2-Methyl-2-([1-(1-methyl-1H-indazol-7-yl)-5-[3-(2-methylpropoxy)phenyl]-1H-pyrazol-3-yl]methoxy]butanoic acid], the IC50 at MCT1 stood at 16000 nM; against MCT4 (setting [3]), 2.2 nM.

On to `Cc1nn(C)c2sc(-c3cc(COC(C)(C)C(=O)O)nn3Cc3ccccc3Cl)cc12` [Example 265, 2-([1-[(2-Chlorophenyl)methyl]-5-[1,3-dimethyl-1H-thieno[2,3-c]pyrazol-5-yl]-1H-pyrazol-3-yl)methoxy)-2-methylpropanoic acid], for which the IC50 was 84000 nM on MCT1 and 5.6 nM on MCT4 (setting [3]).
